Assays:
[1] = Evaluation of the storage stability in crystalline state by visual observation; assay type: physicochemical; conditions: autoclave at 120° C. under a saturated vapor of water for 30 minutes
Protocol: (Evaluation 1) Evaluation of the Storage Stability in Crystalline State by Visual Observation
SM-108 [2] obtained in Example 1 and benzensulfonic acid salt of SM-108 [5] obtained in Example 2 were placed in an autoclave at 120° C. under a saturated vapor of water for 30 minutes.

[2] = Evaluation of the storage stability in an aqueous solution (UV-Vis spectra); assay type: physicochemical; conditions: dilute aqueous solution, room temperature, after 60 days
Protocol: (Evaluation 2) Evaluation of the Storage Stability in an Aqueous Solution
SM-108 obtained in Example 1 and hydrochloric acid salt of SM-108 obtained in Example 3 were dissolved into water to dilute aqueous solutions. UV-Vis spectra of those solutions were recorded just after making solutions and after leaving at room temperature for 60 days.

[3] = Storage stability (general statements); assay type: physicochemical; conditions: solid; no test conditions given
[4] = clinical trial by Sumitomo Pharmaceuticals in 1980s; cited from earlier work

NC(=O)c1nc[nH]c1O [SM-108, 4-Carbamoyl-5-hydroxyimidazole]
colour of the crystalline substance after treatment (visual observation) [1]: turned indigo-blue
change of UV-Vis absorption spectrum of aqueous solution [2]: a broad absorption appeared in the visible-light region
storage stability [3]: poor storage stability
clinical effect against MDS and CML [4]: excellent effects

Cl.NC(=O)c1nc[nH]c1O [hydrochloric acid salt of SM-108]
change of UV-Vis absorption spectrum of aqueous solution [2]: did not change at all
colour of aqueous solution [2]: remained colorless

NC(=O)c1nc[nH]c1O.O=S(=O)(O)c1ccccc1 [benzensulfonic acid salt of SM-108 [5], benzenesulfonic acid salt of SM-108]
colour of the crystalline substance after treatment (visual observation) [1]: remained colorless
